Test results published in paper PMC7756582, “Prodrugs of γ‐Alkyl‐Modified Nucleoside Triphosphates: Improved Inhibition of HIV Reverse Transcriptase” (Angewandte Chemie (International Ed. in English), 2020).
Where two headings read alike, the source gives them in different places.

Tests used:
[1] = Enzyme-catalyzed hydrolysis in human CD4+ T-lymphocyte CEM cell extracts; format: in vitro ADME; conditions: for half-life at 0.86 mM: CEM/0 cell extracts (CD4+ T-lymphocytes), human CD4+ T-lymphocyte CEM cell extracts, 37 °C, read-out: CEM/0 cell extracts t 1/2 (converted)
Experimental: The stability of prodrugs 6 and the γ‐alkyl‐NTPs 7 was further investigated in human CD4 ^+ T‐lymphocyte CEM cell extracts. […] Thus, an enzymatic cleavage reaction took place. Half‐lives as low as 0.4 h (6 az) to 5.2 h (6 dz) were determined. […] This is in accordance to our previous results for the DiPPro‐[ ^17 , ^18 ] or the TriPPPro‐compounds 5.[ ^22 , ^23 ] In all cases we observed the predominant formation of γ‐alkyl‐d4TTPs 7 and d4TDP 2 d in very low concentration (Figure 2 B) but no NTP formation was detected, in contrast to the studies using the previously described TriPPPro compounds 5.[ ^23 , ^24 ] However, the difference to the compounds bearing long lipophilic acyl groups was not very pronounced (2‐ to 3‐fold). In the case of γ‐(AB‐C4,alkyl‐C18)‐d4TTP 6 cz, γ‐C18‐d4TTP 7 z was detected as the main product. After 8 h incubation, the ratio of γ‐C18‐d4TTP 7 z and d4TDP 2 d was 5:1. This was in sharp contrast to the studies performed with TriPPPro compounds 5.[ ^23 , ^24 ] There, it was almost impossible to detect significant concentrations of d4TTP due to its fast dephosphorylation to form first d4TDP and finally d4TMP 2 m. […] The formation of thymine or d4TTP 2 t from γ‐C18‐d4TTP 7 z was not detected (Supporting Information, Figure SI2).
ProLab 300 from Schott Co.. Thermomixer: Eppendorf Thermomixer 5436 and CellMedia Thermoschüttler basic were used. […]
Enzyme-catalyzed hydrolysis of γ-(AB,alkyl)-d4TTPs 6, γ-alkyl-d4TTPs 7,15 and TriPPPros 5 in CEM cell extracts:
18 µL of the appropriate 50 mM DMSO-d6 stock solution was diluted to 6.0 mM hydrolysis solution by addition of 132.0 µL DMSO-d6.
7-10 different samples including 10 µL water and 10 µL hydrolysis solution were prepared in 2 mL Eppendorf® vials. The reaction was started by addition of 50 µL human CEM cell extract and the mixture was incubated at 37 °C for different time periods. The reactions were stopped by addition of 150 μL MeOH. The solution was kept on ice for 5 min followed by centrifugation for 5 min (13000 rpm).
The supernatants were filtered (Chromafil® RC-20/15 MS, 0.2 μm) and stored in liquid nitrogen. When testing, the samples were defrosted and injection volume with 80 μL was used for HPLC analysis. The calculation of t1/2 was performed analogously to that for the chemical hydrolysis studies.
Preparation of cell extracts: Human CD4+ T-lymphocyte CEM cells were grown in RPMI-1640-based cell culture medium to a final density of ~3·10^6 cells/ml. Then, cells were centrifuged for 10 min at 1,250 rpm at 4 °C, washed twice with cold PBS, and the pellet was re-suspended at 10^8 cells/ml and sonicated (Hielscher Ultrasound Techn., 100% amplitude, 3·times for 10 sec) to destroy cell integrity. The resulting cell suspension was then centrifuged at 10,000 rpm to remove cell debris, and the supernatant divided in aliquots before being frozen at -80 C and used.

HIV-2(ROD) = assay: Anti-HIV activity assay, HIV-2-infected thymidine-kinase-deficient CEM/TK- cell cultures; format: cell-based; conditions: for EC50: mean±SD, n=2-3
Experimental: γ‐(AB,alkyl)‐d4TTP prodrugs 6 and the γ‐alkyl‐d4TTPs 7 were evaluated for their ability to inhibit the replication of HIV in HIV‐1‐ or HIV‐2‐infected wild‐type CEM/0 as well as mutant thymidine‐kinase‐deficient CEM cell cultures (CEM/TK^−). For comparison, two TriPPPro derivatives 5 were also included in this assay.
Anti-HIV activity assay: Inhibition of HIV-1(IIIB)- and HIV-2(ROD)-induced cytopathicity in wild-type CEM/0 and thymidine kinase-deficient CEM/TK- cell cultures was measured in microtiter 96-well plates containing ~3·105 CEM cells/mL infected with 100 CCID50 of HIV per milliliter and containing appropriate dilutions of the test compounds. After 4−5 days of incubation at 37 °C in a CO2-controlled humidified atmosphere, CEM giant (syncytium) cell formation was examined microscopically. […]
was defined as the compound concentration required to inhibit HIV-induced giant cell formation by 50%. […]
(§1) The result was visualized by fluorescence imaging. […]
as §1

[2] = target: T1, HIV reverse transcriptase (RT) (Human immunodeficiency virus type 1 group M subtype B, UniProt P03366); assay: Primer extension assay with HIV-RT; format: biochemical, HIV-1; conditions: for primer extension by HIV-RT (substrate properties): with the other three canonical triphosphates, HIV-RT 6 U
T1 construct: reverse transcriptase (RT; an HIV‐encoded RNA‐dependent DNA polymerase); purchased Roboklon
Experimental: Primer-extension reactions:
HIV-RT and human DNA polymerase β and γ were obtained from Roboklon, human DNA polymerase α was obtained from Chimerx.
The primers and templates were purchased from Life Technologies and Microsynth. The fluorescent labeled primer was purchased
from Metabion and Microsynth. The gels were prepared with the size of 450mm×200mm×0.4mm according to the electrophoresis
5’-FITC and 5’-Cy3 labeled Primer-sequence:
The primer extension assays were performed under the following conditions:
FITC and Cy3 labeled primer extension assay:
1) Hybridization: After 5 min incubation at 95 °C in 20 mM Tris-HCl (pH 7.6) and 50 mM NaCl, the hybridization/annealing of the
primer to the template strand was achieved by a cooling phase from 95 °C to […] lasted more than 2 hours. […]
The assays were separated using a denaturating PAGE (15%). The result was visualized by fluorescence imaging. […]
as §1, §1

[3] = Human immunodeficiency virus 2, thymidine-kinase-deficient CEM/TK− cells, HIV-2, read-out: EC50 CEM/TK− HIV-2
[4] = Human immunodeficiency virus 2, CEM-TK(-), read-out: EC50 CEM/TK− HIV-2, thymidine-kinase-deficient CEM/TK− cells, HIV-2
[5] = read-out: EC50 CEM/TK− HIV-2, thymidine-kinase-deficient CEM/TK− cells, HIV-2

| EC50 (HIV-2(ROD); [3]) | SMILES | half-life at 0.86 mM [1] | antiviral activity in CEM/TK− cell cultures (in words) (HIV-2(ROD); HIV-2-infected CEM/TK− cells) | EC50 (HIV-2(ROD); [4]) | EC50 (HIV-2(ROD); [5]) | primer extension by HIV-RT (substrate properties) ([2]; 15 min incubation) | comparison of substrate properties for HIV-RT ([2]; incubation 10, 20, 40 and 60 min, conversion of primer to n+1 product) | stability in cell extracts (in words) ([1]; CEM cell extracts, incubation up to 30 h) | primer extension by HIV-RT (substrate properties) ([2]; 60 min incubation, dNTPs 66 μM) | antiviral activity improved versus TriPPPro intermediates comprising a C17 aliphatic chain (HIV-2(ROD); HIV-2-infected CEM/TK− cells) | more active than d4T (HIV-2(ROD); HIV-2-infected CEM/TK− cells) | primer extension by HIV-RT (substrate properties) ([2]; 30 min incubation) |
| --- | --- | --- | --- | --- | --- | --- | --- | --- | --- | --- | --- | --- |
| 0.17 µM | CCCCCCCCCCCCCCCCCCOP(=O)(OCc1ccc(OC(=O)CCCC)cc1)OP(=O)(O)OP(=O)(O)OCC1C=CC(n2cc(C)c(=O)[nH]c2=O)O1 (centres unmarked) [6 cz, γ‐(AB‐C4,alkyl‐C18)‐d4TTP] | 4.8 h | – | – | – | – | – | – | – | – | – | – |
| – | CCCCOP(=O)(O)OP(=O)(O)OP(=O)(O)OCC1C=CC(n2cc(C)c(=O)[nH]c2=O)O1 (centres unmarked) [7 w, γ‐C4‐d4TTP] | > 30 h | almost inactive | 35 µM | 36 ± 29 µM | single incorporation and an immediate chain termination | better substrates | – | – | – | – | – |
| > 10 µM | CCCCCCCCCCCCCCCC(=O)Oc1ccc(COP(=O)(OCCCC)OP(=O)(O)OP(=O)(O)OCC2C=CC(n3cc(C)c(=O)[nH]c3=O)O2)cc1 (centres unmarked) [6 ew, γ‐(AB‐C15,alkyl‐C4)‐d4TTP] | 2.2 h | inactive | – | – | – | – | – | – | – | – | – |
| – | Cc1cn(C2C=CC(COP(=O)(O)OP(=O)(O)OP(=O)(O)O)O2)c(=O)[nH]c1=O (centres unmarked) [2 t, d4TTP, reference compound] | – | inactive | > 100 µM | – | – | – | rapidly enzymatically dephosphorylated | only the n+1 band is visible | – | – | – |
| – | CCCCCCCCCCCCCCCCCCOP(=O)(O)OP(=O)(O)OP(=O)(O)OCC1C=CC(n2cc(C)c(=O)[nH]c2=O)O1 (centres unmarked) [7 z, γ‐C18‐d4TTP] | > 30 h | highly potent | 0.055 µM | 0.05 ± 0.027 µM | – | – | – | Only the n+1 band was detected | 30 fold | 2700 fold | immediate chain termination |
